Test system: 695427-040-R-J1-PDC complex spheroid viability
Assay: Anticancer human tumor 695427-040-R-J1-PDC patient-derived colon adenocarcinoma cell line growth inhibition [RAS]
Details: for IC50: curve of first compound; for viability, T/C: stronger effect = lower value
Outline: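 Agents were tested in combination matrices in half-log decrements from a top concentration at or near clinical Cmax (10 microM if undetermined). Targets were multi-cell spheroids of tumour lines plus HUVEC and MSC stromal cells.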

[1] = second compound 0.000949 µM, first compound 0.00316 µM
[2] = second compound 0.000949 µM, first compound 0.01 µM
[3] = second compound 0.000949 µM, first compound 0.0316 µM
[4] = second compound 0.000949 µM, first compound 0.1 µM
[5] = second compound 0.000949 µM, first compound 0.316 µM
[6] = second compound 0.000949 µM, first compound 1 µM
[7] = second compound 0.003 µM, first compound 0.00316 µM
[8] = second compound 0.003 µM, first compound 0.01 µM
[9] = second compound 0.003 µM, first compound 0.0316 µM
[10] = second compound 0.003 µM, first compound 0.1 µM
[11] = second compound 0.003 µM, first compound 0.316 µM
[12] = second compound 0.003 µM, first compound 1 µM
[13] = second compound 0.00949 µM, first compound 0.00316 µM
[14] = second compound 0.00949 µM, first compound 0.01 µM
[15] = second compound 0.00949 µM, first compound 0.0316 µM
[16] = second compound 0.00949 µM, first compound 0.1 µM
[17] = second compound 0.00949 µM, first compound 0.316 µM
[18] = second compound 0.00949 µM, first compound 1 µM
[19] = second compound 0.03 µM, first compound 0.00316 µM
[20] = second compound 0.03 µM, first compound 0.01 µM
[21] = second compound 0.03 µM, first compound 0.0316 µM
[22] = second compound 0.03 µM, first compound 0.1 µM
[23] = second compound 0.03 µM, first compound 0.316 µM
[24] = second compound 0.03 µM, first compound 1 µM
[25] = second compound 0.0949 µM, first compound 0.00316 µM
[26] = second compound 0.0949 µM, first compound 0.01 µM
[27] = second compound 0.0949 µM, first compound 0.0316 µM
[28] = second compound 0.0949 µM, first compound 0.1 µM
[29] = second compound 0.0949 µM, first compound 0.316 µM
[30] = second compound 0.0949 µM, first compound 1 µM
[31] = second compound 0.3 µM, first compound 0.00316 µM
[32] = second compound 0.3 µM, first compound 0.01 µM
[33] = second compound 0.3 µM, first compound 0.0316 µM
[34] = second compound 0.3 µM, first compound 0.1 µM
[35] = second compound 0.3 µM, first compound 0.316 µM
[36] = second compound 0.3 µM, first compound 1 µM
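Also: viability read after seven days of drug exposure.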
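For viability, T/C in this document: 100% = DMSO vehicle control viability.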

SMILES: C=CC(=O)N1CCN(c2nc(OCC3CCCN3C)nc3c(F)c(-c4nc(N)cc(C)c4C(F)(F)F)c(Cl)cc23)C(C)C1 (stereo unspecified) + CCn1c(-c2cc(N3CCN(C)CC3)cnc2C(C)OC)c2c3cc(ccc31)-c1csc(n1)CC(NC(=O)C1CC1C)C(=O)N1CCCC(N1)C(=O)OCC(C)(C)C2
- IC50 (second compound 0.000949 µM): > 1000 nM
- IC50 (second compound 0.003 µM): > 1000 nM
- IC50 (second compound 0.00949 µM): > 1000 nM
- IC50 (second compound 0.03 µM): > 1000 nM
- IC50 (second compound 0.0949 µM): < 3.16 nM
- IC50 (second compound 0.3 µM): < 3.16 nM
- viability, T/C [1]: 91.6%
- viability, T/C [2]: 115%
- viability, T/C [3]: 99.4%
- viability, T/C [4]: 94.1%
- viability, T/C [5]: 110%
- viability, T/C [6]: 90%
- viability, T/C [7]: 92.3%
- viability, T/C [8]: 99.9%
- viability, T/C [9]: 85.7%
- viability, T/C [10]: 85%
- viability, T/C [11]: 98.9%
- viability, T/C [12]: 85.5%
- viability, T/C [13]: 94%
- viability, T/C [14]: 69.2%
- viability, T/C [15]: 81.2%
- viability, T/C [16]: 75.3%
- viability, T/C [17]: 76.4%
- viability, T/C [18]: 69.1%
- viability, T/C [19]: 69.5%
- viability, T/C [20]: 63.7%
- viability, T/C [21]: 57%
- viability, T/C [22]: 55.5%
- viability, T/C [23]: 56.3%
- viability, T/C [24]: 59%
- viability, T/C [25]: 52.3%
- viability, T/C [26]: 47.7%
- viability, T/C [27]: 42.3%
- viability, T/C [28]: 42.8%
- viability, T/C [29]: 47.1%
- viability, T/C [30]: 45.1%
- viability, T/C [31]: 39.2%
- viability, T/C [32]: 34.7%
- viability, T/C [33]: 42.7%
- viability, T/C [34]: 38%
- viability, T/C [35]: 36.8%
- viability, T/C [36]: 37.1%

SMILES: O=C(c1ccc(F)c(F)c1Nc1ccc(I)cc1F)N1CC(O)([C@@H]2CCCCN2)C1 + CCn1c(-c2cccnc2C(C)OC)c2c3cc(ccc31)N1CCOC(CC(NC(=O)C(C(C)C)N(C)C(=O)C3(F)CCN(C(=O)C#CC(C)(C)N(C)C)CC3)C(=O)N3CCCC(N3)C(=O)OCC(C)(C)C2)C1
- IC50 (second compound 0.000949 µM): 81.2 nM
- IC50 (second compound 0.003 µM): 85.5 nM
- IC50 (second compound 0.00949 µM): 80.3 nM
- IC50 (second compound 0.03 µM): 67 nM
- IC50 (second compound 0.0949 µM): 66.4 nM
- IC50 (second compound 0.3 µM): 35.4 nM
- viability, T/C [1]: 71.6%
- viability, T/C [2]: 85.1%
- viability, T/C [3]: 71%
- viability, T/C [4]: 44.4%
- viability, T/C [5]: 19.4%
- viability, T/C [6]: 9.33%
- viability, T/C [7]: 91.1%
- viability, T/C [8]: 88.8%
- viability, T/C [9]: 66.6%
- viability, T/C [10]: 51.4%
- viability, T/C [11]: 17.6%
- viability, T/C [12]: 6.84%
- viability, T/C [13]: 88.6%
- viability, T/C [14]: 67.5%
- viability, T/C [15]: 69.9%
- viability, T/C [16]: 48.1%
- viability, T/C [17]: 22.3%
- viability, T/C [18]: 9.42%
- viability, T/C [19]: 105%
- viability, T/C [20]: 80.2%
- viability, T/C [21]: 66.3%
- viability, T/C [22]: 42.9%
- viability, T/C [23]: 22.1%
- viability, T/C [24]: 7.71%
- viability, T/C [25]: 81.5%
- viability, T/C [26]: 84%
- viability, T/C [27]: 60.6%
- viability, T/C [28]: 43.1%
- viability, T/C [29]: 20.8%
- viability, T/C [30]: 7.03%
- viability, T/C [31]: 73.4%
- viability, T/C [32]: 65.5%
- viability, T/C [33]: 47%
- viability, T/C [34]: 42%
- viability, T/C [35]: 19.2%
- viability, T/C [36]: 6.79%

SMILES: CC(Nc1ccc2c(c1)OCCn1cc(N3C(=O)OCC3C(F)F)nc1-2)C(N)=O (stereo unspecified) + CCn1c(-c2cccnc2C(C)OC)c2c3cc(ccc31)N1CCOC(CC(NC(=O)C(C(C)C)N(C)C(=O)C3(F)CCN(C(=O)C#CC(C)(C)N(C)C)CC3)C(=O)N3CCCC(N3)C(=O)OCC(C)(C)C2)C1
- IC50 (second compound 0.000949 µM): > 10000 nM
- IC50 (second compound 0.003 µM): 8530 nM
- IC50 (second compound 0.00949 µM): > 10000 nM
- IC50 (second compound 0.03 µM): > 10000 nM
- IC50 (second compound 0.0949 µM): > 10000 nM
- IC50 (second compound 0.3 µM): > 10000 nM
- viability, T/C [3]: 80.8%
- viability, T/C [4]: 68.8%
- viability, T/C [5]: 68.7%
- viability, T/C [6]: 34.9%
- viability, T/C (second compound 0.000949 µM, first compound 3.16 µM): 80.1%
- viability, T/C (second compound 0.000949 µM, first compound 10 µM): 39.4%
- viability, T/C [9]: 95.4%
- viability, T/C [10]: 79.6%
- viability, T/C [11]: 62.1%
- viability, T/C [12]: 50.1%
- viability, T/C (second compound 0.003 µM, first compound 3.16 µM): 86%
- viability, T/C (second compound 0.003 µM, first compound 10 µM): 37.5%
- viability, T/C [15]: 103%
- viability, T/C [16]: 84.1%
- viability, T/C [17]: 72.3%
- viability, T/C [18]: 62.9%
- viability, T/C (second compound 0.00949 µM, first compound 3.16 µM): 81.9%
- viability, T/C (second compound 0.00949 µM, first compound 10 µM): 42.3%
- viability, T/C [21]: 91.8%
- viability, T/C [22]: 70.1%
- viability, T/C [23]: 59.9%
- viability, T/C [24]: 45.3%
- viability, T/C (second compound 0.03 µM, first compound 3.16 µM): 89.3%
- viability, T/C (second compound 0.03 µM, first compound 10 µM): 37.8%
- viability, T/C [27]: 71.8%
- viability, T/C [28]: 67.5%
- viability, T/C [29]: 52.6%
- viability, T/C [30]: 50.4%
- viability, T/C (second compound 0.0949 µM, first compound 3.16 µM): 100%
- viability, T/C (second compound 0.0949 µM, first compound 10 µM): 40.9%
- viability, T/C [33]: 69.6%
- viability, T/C [34]: 52%
- viability, T/C [35]: 70.8%
- viability, T/C [36]: 52.8%
- viability, T/C (second compound 0.3 µM, first compound 3.16 µM): 69.1%
- viability, T/C (second compound 0.3 µM, first compound 10 µM): 42.1%
